Test results from ChEMBL document CHEMBL4342511, “Discovery and Optimization of wt-RET/KDR-Selective Inhibitors of RETV804M Kinase” (ACS Med Chem Lett, 2020).
Values after ≈ are worked out from the molar mass of the structure shown.

Experiments:
Homo sapiens [1] = species: Homo sapiens; experiment: Selectivity index, ratio of IC50 for GST-tagged human RET expressed in baculovirus to IC50 for recombinant N-Terminal GST-tagged human RET V804M mutant (658 to end residues)
Homo sapiens [2] = species: Homo sapiens; experiment: Selectivity index, ratio of IC50 for N-terminal His6-tagged recombinant human KDR (790 to end residue) expressed in baculovirus in Sf21 insect cells to IC50 for recombinant N-Terminal GST-tagged human RET V804M mutant (658 to end residues)
Homo sapiens [3] = species: Homo sapiens; experiment: Selectivity index, ratio of IC50 for RET (unknown origin) expressed in BaF3 cells to IC50 for RET V804M mutant (unknown origin) expressed […] cells; format: cell-based
Homo sapiens [4] = species: Homo sapiens; experiment: Selectivity index, ratio of IC50 for KDR (unknown origin) expressed in BaF3 cells to IC50 for RET V804M mutant (unknown origin) expressed […] cells; format: cell-based
[5] = Kinetic solubility of compound; format: physicochemical; details: read-out: Kinetic_solubility
[6] = biological target: Proto-oncogene tyrosine-protein kinase receptor Ret (Homo sapiens, UniProt P07949, V804M)
Proto-oncogene tyrosine-protein kinase receptor Ret, sequence (P07949 29-1114 V804M limits assumed): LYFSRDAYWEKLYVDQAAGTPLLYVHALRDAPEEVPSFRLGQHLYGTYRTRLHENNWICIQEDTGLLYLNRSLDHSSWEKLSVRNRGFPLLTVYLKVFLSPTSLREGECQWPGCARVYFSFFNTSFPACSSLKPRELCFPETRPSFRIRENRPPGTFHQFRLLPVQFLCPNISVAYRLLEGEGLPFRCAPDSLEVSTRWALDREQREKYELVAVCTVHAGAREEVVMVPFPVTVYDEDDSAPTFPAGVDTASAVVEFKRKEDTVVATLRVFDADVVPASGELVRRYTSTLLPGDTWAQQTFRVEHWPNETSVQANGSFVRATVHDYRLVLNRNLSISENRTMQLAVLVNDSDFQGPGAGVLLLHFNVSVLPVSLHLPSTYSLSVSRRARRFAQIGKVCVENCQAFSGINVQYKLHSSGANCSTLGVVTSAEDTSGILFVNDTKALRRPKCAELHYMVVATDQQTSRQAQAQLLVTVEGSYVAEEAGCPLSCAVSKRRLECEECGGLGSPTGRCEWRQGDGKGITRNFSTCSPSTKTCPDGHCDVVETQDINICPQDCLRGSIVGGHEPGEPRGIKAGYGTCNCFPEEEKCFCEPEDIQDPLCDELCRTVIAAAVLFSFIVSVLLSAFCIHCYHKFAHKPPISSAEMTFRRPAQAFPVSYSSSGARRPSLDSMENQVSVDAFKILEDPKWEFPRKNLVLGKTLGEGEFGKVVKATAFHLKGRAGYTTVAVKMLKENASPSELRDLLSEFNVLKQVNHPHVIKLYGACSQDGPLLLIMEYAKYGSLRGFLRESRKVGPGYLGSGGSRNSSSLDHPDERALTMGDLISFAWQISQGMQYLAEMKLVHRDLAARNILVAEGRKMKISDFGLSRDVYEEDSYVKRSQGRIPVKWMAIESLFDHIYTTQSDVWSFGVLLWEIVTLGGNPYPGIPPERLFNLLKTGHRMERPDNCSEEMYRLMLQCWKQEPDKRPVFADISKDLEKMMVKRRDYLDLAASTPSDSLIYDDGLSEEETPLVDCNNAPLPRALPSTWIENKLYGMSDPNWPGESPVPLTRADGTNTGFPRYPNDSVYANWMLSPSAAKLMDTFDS

[7] = Apparent permeability in human Caco2 cells; format: ADME, cell-based; details: Caco-2
[8] = Metabolic stability in mouse liver microsomes assessed as intrinsic clearance; format: ADME, Microsome; details: read-out: CLH
[9] = Efflux ratio of apparent permeability in human Caco2 cells; format: ADME, cell-based; details: Caco-2

SMILES	Ratio IC50 (Homo sapiens [1])	Ratio IC50 (Homo sapiens [2])	Ratio IC50 (Homo sapiens [3])	Ratio IC50 (Homo sapiens [4])	solubility kinetic [5] [µM]	IC50 [6] [nM]	Papp [7] [×10⁻⁶ cm/s]	microsomal CLint [8] [µL/min/mg]	efflux ratio [9]
c1cc(CNc2ccn3ncc(-c4ccc5c(c4)OCO5)c3n2)ccn1	0.64	27	2.2	6.2	30 (≈ 10.4 µg/mL)	290	–	–	–
c1ccc(CNc2ccn3ncc(-c4ccc5c(c4)OCO5)c3n2)nc1	14	100	3.1	7.6	–	39	–	–	–
NC(=O)c1ccc(-c2cnn3ccc(NCc4cccnc4)nc23)cc1	13	19	0.85	1.9	–	51	–	–	–
O=C(O)c1ccc(-c2cnn3ccc(NCc4ccncc4)nc23)cc1	1.2	1.8	–	–	–	560	–	–	–
CS(=O)(=O)Nc1ccc(-c2cnn3ccc(NCc4ccncc4)nc23)cc1	0.28	29	–	–	–	1500	–	–	–
CN(C)CCNc1ccn2ncc(-c3ccc(C(N)=O)cc3)c2n1	4.7	54	0.3	0.83	–	350	–	–	–
c1ccc(-c2cnn3ccc(NCc4ccncc4)nc23)cc1	2.4	0.96	–	–	–	1140	–	–	–
NC(=O)c1ccc(-c2cnn3ccc(NCc4ccncc4)nc23)cc1	3.7	110	0.89	2.3	–	20	–	–	–
NS(=O)(=O)c1ccc(-c2cnn3ccc(NCc4ccncc4)nc23)cc1	1.3	220	1	1	–	360	–	–	–
CN(C)C(=O)c1ccc(-c2cnn3ccc(NCc4ccncc4)nc23)cc1	1.8	3.9	–	–	–	7600	–	–	–
CC(=O)Nc1cccc(-c2cnn3ccc(NCc4ccncc4)nc23)c1	4	22	–	–	–	1600	–	–	–
c1cc2c(cc1-c1cnn3ccc(NCC4CCNCC4)nc13)OCO2	1.2	64	0.85	2.6	–	200	–	–	–
OCCNc1ccn2ncc(-c3ccc4c(c3)OCO4)c2n1	15	19	1.5	1.5	–	130	–	–	–
c1cc(Nc2ccn3ncc(-c4ccc5c(c4)OCO5)c3n2)ccn1	2.1	2.1	–	–	–	63000	–	–	–
c1ccc(CNc2ccn3ncc(-c4ccc5c(c4)OCO5)c3n2)cc1	0.16	2.3	–	–	–	29000	–	–	–
NC(=O)c1ccc(-c2cnn3ccc(NCc4ccccn4)nc23)cc1	19	22	0.9	2	–	44	–	–	–
CN(C)CCCNc1ccn2ncc(-c3ccc4c(c3)OCO4)c2n1	16	410	32	76	> 100	19	22.8	62	1.4
c1cc2c(cc1-c1cnn3ccc(NCCN4CCCCC4)nc13)OCO2	5.3	34	–	–	–	660	–	–	–
CN(C)CCNc1ccn2ncc(-c3ccc4c(c3)OCO4)c2n1	21	540	9.8	13	–	91	–	–	–
c1cc(CNc2ccn3ncc(-c4ccc5cn[nH]c5c4)c3n2)ccn1	18	83	1.9	1.9	–	300	–	–	–
CC(=O)Nc1ccc(-c2cnn3ccc(NCc4ccncc4)nc23)cc1	2.6	4.4	–	–	–	6700	–	–	–
NC(=O)c1cccc(-c2cnn3ccc(NCc4ccncc4)nc23)c1	–	8	–	–	–	4300	–	–	–
c1cc2c(cc1-c1cnn3ccc(NC4CCNCC4)nc13)OCO2	1.2	17	–	–	–	880	–	–	–
